Results as given in the METLIN SMRT retention time set (Domingo-Almenara et al. 2019).

experiment: gradient 5% acetonitrile 3 min, to 50% in 2 min, to 85% in 15 min, held 3 min, 100 µL/min; settings: column: Zorbax Extend-C18 2.1 x 50 mm; eluents: water / acetonitrile, 0.1% formic acid
In short: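 Pure standards were run in mixtures of ~100 molecules by HPLC coupled to a quadrupole time-of-flight mass spectrometer. The column was a Zorbax Extend-C18 (2.1 × 50 mm, 1.8 μm) at 100 μL/min, with water and acetonitrile each containing 0.1% formic acid, in positive and negative ionization mode. Dead and dwell volumes were 40 μL and 900 μL. Retention time was taken from computationally picked adduct peaks, each manually inspected, with data collected over 3 months.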

RP-LC retention time | Compound
624 s | CN(C)c1cncnc1-n1cc(NC(=O)CCc2ccccc2)cn1
989 s | O=C(Cn1nc2c3cc(-c4ccc(F)cc4)nn3ccn2c1=O)Nc1ccc(Br)cc1F
712 s | Cc1nn(-c2ccc(C(=O)N3CCN(C(=O)c4ccco4)CC3)cc2)c2c1C(=O)CC(C)(C)C2
633 s | CNC(=O)C1CCCN(C(=O)Nc2ccc(NC(=O)Nc3ccc(OC)cc3)cc2)C1 (centres undefined)
803 s | CC1=C(c2ccccc2)S(=O)(=O)N=C1N1CCCN(C(=O)CC(C)C)CC1
701 s | O=C(CN1CCN(C(=O)Nc2ccc(F)cc2)CC1=O)NC1CCCCC1
969 s | COc1ccc2cc(OCC3(C(=O)O)CN(C(=O)c4ccc(F)cc4)C3)ccc2c1
697 s | COc1ccc(Cl)cc1C(=O)N1CCC(C(=O)Nc2nccs2)CC1
671 s | CCCc1nc(-c2cc3ccccc3nc2N2CCN(C)CC2)no1
1200 s | CCCN(c1cccc(Cl)c1)c1nc(C(=O)OCC)nc2ccccc12
698 s | O=C(Nc1ccc(-n2cnc(C(=O)N3CCCCCC3)c2)nc1)C1CC1
1150 s | Fc1ccccc1N1CCN(c2ncccc2-c2nnc(-c3ccccc3)o2)CC1
877 s | COc1ccc(S(=O)(=O)N2C[C@@H](F)C[C@H]2C(=O)N2CCc3ccccc3C2)cc1
1090 s | Cc1ccccc1NC(=O)C(C)n1nc(C)c2nn(-c3ccccc3)c(-n3cccc3)c2c1=O (centres undefined)
694 s | CN(Cc1nc2ccccc2n1CC(=O)N(C)c1ccccc1)C(=O)c1ccco1
782 s | COc1ccc(NC(=O)c2cn(-c3cc(N(C)C)ncn3)cn2)cc1F
607 s | CCOC(=O)c1[nH]c(C)c(CCC(=O)N2CCC(C(=O)NCCCN3CCCCC3)CC2)c1C
902 s | CCn1cnc(S(=O)(=O)N2CCC(C(=O)NCc3ccccc3OC)CC2)c1
677 s | CCOC(=O)C1CCN(C(=O)NCc2cccs2)CC1
628 s | COc1ccc(NC(=O)N2CCCC(CN3CCc4ccccc4C3)C2)cc1OC (centres undefined)
1150 s | CCn1c(C(=O)NCCc2c[nH]c3ccccc23)cc2c(-c3cccs3)nn(-c3ccccc3)c21
567 s | CCn1cc(CCN2CCC(C(=O)NC(C)C)CC2)c2cccnc21
546 s | CCOc1cccc(CN2C[C@@H](CO)[C@H](c3ccncc3)C2)c1

RP-LC retention time | Compound
641 s | O=C(N[C@H]1C[C@@H]2C[C@H]1N(C(=O)c1ccccc1OC(F)(F)F)C2)c1cccnc1
922 s | COc1ccc(C)cc1NS(=O)(=O)c1ccc(-c2nnc(C3CCC3)o2)o1
716 s | Cc1ccn(CC(=O)N2CC(n3cc(COc4ccc(F)cc4)nn3)C2)n1
613 s | O=S(=O)(c1ccc(F)cc1F)N1CC(COc2ccncc2)C2(CCOCC2)C1 (centres undefined)
864 s | CC(=O)Nc1onc(C)c1-c1ccc(C)c(S(=O)(=O)Nc2ccc(C)cc2Cl)c1
1210 s | O=C(Nc1ccccc1)c1c(O)c2cccnc2n(-c2cccc(F)c2)c1=O
805 s | Cc1cccc(Cl)c1NC(=O)CN1C(=O)NC2(CCC(C)CC2)C1=O (centres undefined)
702 s | c1ccc(-c2nnc(-c3ccccc3OCc3cn4ccccc4n3)o2)cc1
786 s | CCc1cnc2c(c1SCC(=O)N(CC)CC)c(=O)n(C)c(=O)n2C
625 s | O=C(c1ccccn1)N1CCC(n2c(-c3ccsc3)nc3cccnc32)C1 (centres undefined)
975 s | CCOC(=O)c1c(S(=O)(=O)N2CCC(C(=O)NCc3cccc(C)c3)CC2)c(C)n(CC)c1C
601 s | CCOC(=O)c1cc(S(=O)(=O)NCCC(=O)N2CCN(c3ccccn3)CC2)cn1C
576 s | O=S(=O)(NCCCN1CCOC(c2ccccc2)C1)c1ccccc1Cl (centres undefined)
806 s | Cc1cc2c(cc1C)[n+](=O)c(C(=O)/C=C/c1ccccc1[N+](=O)[O-])c(C)n2[O-]
581 s | COCCN1C(=O)c2ccccc2C(C(=O)Nc2cccnc2)C1c1cccs1 (centres undefined)
902 s | Cc1cc2c(cc1S(=O)(=O)N1CCCC1C(=O)Nc1ccc(C(C)C)cc1)OCC(=O)N2 (centres undefined)
764 s | O=C(NCc1ccccc1)C1CC(=O)N(CCc2c[nH]c3ccc(F)cc23)C1 (centres undefined)
710 s | CCc1nc2ccc(-c3noc(-c4cccc(C#N)c4)n3)cc2n1CC
793 s | Cc1nnc(-c2ccc3ccn(CC(=O)NCC(C)c4ccccc4)c3c2)o1 (centres undefined)
596 s | Cc1ccc(C(=O)NCCCN2CCCC2)cc1NC(=O)C1=CSCCO1
586 s | Cc1cc(C)n(-c2ccnc(N3CCC(C(N)=O)CC3)n2)n1
600 s | Cc1nnc2ccc(N3CCOCC3)nn12
708 s | CCn1cc(CC(=O)NCc2ccc(F)cc2)c2cccnc21

RP-LC retention time | Compound
1030 s | CC(C)Cn1cnc2c(-c3ccc(F)cc3)csc2c1=O
738 s | CCNC(=O)c1nc(-c2ccc(C)cc2)n2c1CCCCC2
886 s | CCc1noc(CN2N=C(C(=O)N3CCC(C)CC3)S(=O)(=O)c3ccccc32)n1
1130 s | CCN1C(=O)COc2ccc(-c3noc(-c4ccc(F)cc4)n3)cc21
580 s | OC[C@@H]1CN(Cc2ccc3[nH]ccc3c2)C[C@H]1c1ccccn1
794 s | CCC(=O)N1CCc2sc(C(=O)N3CCN(c4ccccc4)CC3)cc2C1
746 s | CC(Cc1cccs1)NC(=O)CCS(=O)(=O)c1ccccc1 (centres undefined)
799 s | O=C(Cn1c2c(c(=O)n(C3CCCCC3)c1=O)CCC2)NCc1ccc2c(c1)OCO2
761 s | Cc1cccc(Sc2nccnc2N2CCCC(C(=O)N3CCN(c4ccccn4)CC3)C2)c1 (centres undefined)
617 s | O=C(NC1CCOCC1)c1ccc(-c2cc(-c3cn[nH]c3-c3ccccn3)ccn2)cc1
724 s | Cc1ccc(OCC(O)Cn2c(C3CC3)nc3ccccc32)cc1C (centres undefined)
793 s | Cc1ccc2c(c1)N(S(C)(=O)=O)CCC(C(=O)NCc1ccco1)O2 (centres undefined)
766 s | CC(=O)Nc1nc(-c2ccc(F)c(F)c2)cs1
805 s | CCS(=O)(=O)N1CCc2nc(-c3ccc(OC)cc3)ncc2C1
698 s | Cc1ccc(-c2cc(C(=O)N3CCC(NC(=O)c4cc(C5CC5)[nH]n4)CC3)[nH]n2)cc1C
652 s | CC(C)C(=O)N1CCc2cc(CNS(=O)(=O)Cc3ccccc3)ccc21
871 s | Cn1nc(-c2nc(C3CC3)no2)c2c1CCN(C(=O)Nc1ccccc1Cl)C2
776 s | CCCNC(=O)Nc1ccc(NC(=O)N2CCCC(C(=O)NCC3CCCCC3)C2)cc1 (centres undefined)
630 s | CCc1cccc(NC(=O)Nc2c(-c3ccncc3)nc3ccccn23)c1
689 s | O=C(NCC(O)C1CCCCC1)c1ccsc1 (centres undefined)
1170 s | O=S(=O)(c1ccc(F)cc1)N1CCc2nc(-c3ccc(Cl)cc3)ncc2C1
966 s | CCCNC(=O)Cn1cc(C(=O)Nc2ccc(C)c(C)c2)c(=O)c2ccc(C)nc21
780 s | CNC(=O)c1cnn(-c2ccc(-c3nc(C(C)C)no3)cn2)c1C

RP-LC retention time | Compound
961 s | Cc1ccc(CNC(=O)C2(C)CN(S(C)(=O)=O)CC(=O)N2CCc2ccc(Cl)cc2)cc1 (centres undefined)
1000 s | Cc1nc(-c2cn(C(C)C)c3ncccc23)sc1C(=O)NC1CCCC1
562 s | CCN(CC)CCNCc1ccc(-c2ccccc2F)o1
584 s | COc1ccc(CN2CCc3nc(N4CCN(c5ncccn5)CC4)ncc3C2)cc1
618 s | Cc1cnc(C(=O)N2CCC(N3C(=O)C(OCC4CC4)C34CCOCC4)CC2)cn1 (centres undefined)
850 s | CC1=C(c2ccc(Cl)cc2)S(=O)(=O)N=C1N1CCCN(C(=O)C2CCC2)CC1
915 s | O=C(CN1C(=O)CCCc2cc(S(=O)(=O)N3CCCC3)ccc21)NC1CCCCCCC1
715 s | Cn1nnc2cc(CNC(=O)c3cccc(Cl)c3)ccc21
553 s | O=c1c(NCCc2ccncc2)nc2ccncc2n1Cc1ccccc1
827 s | Cc1ccc(N2CCC(NC(=O)Cc3cccs3)C2=O)cc1 (centres undefined)
945 s | COc1ccc(OC)c(S(=O)(=O)Nc2ccc(Br)cc2C)c1
666 s | Cc1ccc(NC(=O)N2CCN(c3cc(C)nc(N4CCOCC4)n3)CC2)c(C)c1
872 s | Cc1cc(Cl)ccc1S(=O)(=O)N1CCn2c(nn(CC3CC3)c2=O)C1
598 s | O=C(NCCOc1ccc2nnc(-c3cccc(F)c3)n2n1)c1ccc(=O)[nH]n1
924 s | Cc1noc(C2(NC(=O)c3ccc(Br)cc3)CCCCC2)n1
903 s | Cn1nc(-c2nnc(-c3ccccc3F)o2)c2c1CCN(S(=O)(=O)c1ccc(F)cc1)C2
843 s | O=C(Nc1ccc2c(c1)N(C(=O)c1cccs1)CC2)c1ccc2c(c1)OCO2
846 s | O=C(COc1ccccc1)N1CC2CN(S(=O)(=O)c3ccc(F)cc3)CC(C1)O2
1260 s | Clc1ccc(-c2noc(Cc3nc(-c4ccc5c(c4)OCO5)cs3)n2)cc1
580 s | Cc1ccccc1NC(=O)N1CCC(CCN)CC1
